Measurements published in ChEMBL document CHEMBL1201862, “PubChem BioAssay data set” (2004).
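Compound exposure: 48 hours, 5 concentrations, 96-well plates. Abbreviation: GI50, concentration required for 50% inhibition of growth.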 Active and inactive are the calls of the source. Cut-off read from the data, not from the text of the source: active = GI50 up to about 1.1 µM and inactive = higher.

Key:
Assay in all cases: growth of human tumour cells (NCI), 48 h
ACHN = tested on: ACHN
CCRF-CEM = tested on: CCRF-CEM
EKVX = tested on: EKVX
HCT-116 = tested on: HCT-116
HCT-15 = tested on: HCT-15
HL-60 = tested on: HL-60
HT-29 = tested on: HT-29
IGROV-1 = tested on: IGROV-1
KM12 = tested on: KM12
M14 = tested on: M14
OVCAR-4 = tested on: OVCAR-4
OVCAR-8 = tested on: OVCAR-8
RPMI-8226 = tested on: RPMI-8226
SF-268 = tested on: SF-268
SF-295 = tested on: SF-295
SF-539 = tested on: SF-539
SK-OV-3 = tested on: SK-OV-3
SW-620 = tested on: SW-620
UO-31 = tested on: UO-31
Malme-3M = tested on: Malme-3M

Structure (SMILES)	GI50 (ACHN)	GI50 (CCRF-CEM)	GI50 (EKVX)	GI50 (HCT-116)	GI50 (HCT-15)	GI50 (HL-60)	GI50 (HT-29)	GI50 (IGROV-1)	GI50 (KM12)	GI50 (M14)	GI50 (OVCAR-4)	GI50 (OVCAR-8)	GI50 (RPMI-8226)	GI50 (SF-268)	GI50 (SF-295)	GI50 (SF-539)	GI50 (SK-OV-3)	GI50 (SW-620)	GI50 (UO-31)	GI50 (Malme-3M)
N#Cc1c(=O)c2cccnc2n2c1[nH]c1ccccc12	42.1 µM (inactive)	> 100 µM (inactive)	85.9 µM (inactive)	91.4 µM (inactive)	98.2 µM	> 100 µM (inactive)	> 100 µM (inactive)	> 100 µM (inactive)	80.7 µM (inactive)	90.2 µM (inactive)	> 100 µM (inactive)	66.7 µM (inactive)	> 100 µM (inactive)	49.1 µM (inactive)	49.3 µM (inactive)	55.8 µM (inactive)	52.8 µM (inactive)	> 100 µM (inactive)	48.6 µM (inactive)	–
CCOC(=O)C1CCCN1C(=O)c1ccccc1Cl (centres undefined)	> 100 µM (inactive)	> 100 µM (inactive)	> 100 µM (inactive)	> 100 µM (inactive)	> 100 µM	> 100 µM (inactive)	> 100 µM (inactive)	> 100 µM (inactive)	> 100 µM (inactive)	> 100 µM (inactive)	–	> 100 µM (inactive)	> 100 µM (inactive)	> 100 µM (inactive)	> 100 µM (inactive)	> 100 µM (inactive)	–	> 100 µM (inactive)	> 100 µM (inactive)	> 100 µM (inactive)
CC(=O)N/N=C1/CC[C@@]2(C)C(=CC[C@H]3C4CCC(C(C)CCCC(C)C)[C@@]4(C)CCC32)C1(C)C (some centres undefined)	62.4 µM (inactive)	13.8 µM (inactive)	> 100 µM (inactive)	48.8 µM (inactive)	40.6 µM	42 µM (inactive)	31.5 µM (inactive)	57.4 µM (inactive)	46.3 µM (inactive)	48 µM (inactive)	50.5 µM (inactive)	51.1 µM (inactive)	> 100 µM (inactive)	63 µM (inactive)	22.3 µM (inactive)	–	> 100 µM (inactive)	53.3 µM (inactive)	82 µM (inactive)	> 100 µM (inactive)
CCOC(=O)C(C(=O)OCC)=c1sc(=C(C(=O)OCC)C(=O)OCC)s1	> 100 µM (inactive)	> 100 µM (inactive)	> 100 µM (inactive)	–	> 100 µM	> 100 µM (inactive)	> 100 µM (inactive)	> 100 µM (inactive)	> 100 µM (inactive)	> 100 µM (inactive)	> 100 µM (inactive)	> 100 µM (inactive)	> 100 µM (inactive)	> 100 µM (inactive)	> 100 µM (inactive)	–	> 100 µM (inactive)	> 100 µM (inactive)	–	> 100 µM (inactive)
CC(=O)OCc1c(O)nc2c(c1O)-c1ccccc1CC2	163 µM (inactive)	67.1 µM (inactive)	125 µM (inactive)	58.2 µM (inactive)	57.5 µM	84.7 µM (inactive)	113 µM (inactive)	164 µM (inactive)	53.2 µM (inactive)	–	–	101 µM (inactive)	38.5 µM (inactive)	77.1 µM (inactive)	74.6 µM (inactive)	89.1 µM (inactive)	194 µM (inactive)	56.4 µM (inactive)	–	> 35 µM (inactive)
COc1ccc(CCCCl)c(C2=NCCc3cc(OC)c(OC)cc32)c1	68.1 µM (inactive)	92.5 µM (inactive)	53.6 µM (inactive)	33 µM (inactive)	71.1 µM	27.5 µM (inactive)	36.1 µM (inactive)	39.9 µM (inactive)	38.8 µM (inactive)	43.9 µM (inactive)	> 100 µM (inactive)	25.6 µM (inactive)	6.87 µM (inactive)	49.3 µM (inactive)	48.5 µM (inactive)	79.3 µM (inactive)	> 100 µM (inactive)	72.1 µM (inactive)	38 µM (inactive)	–
Oc1[nH]c(Nc2cc(Cl)cc(Cl)c2)nc2ncnc1-2	> 75 µM (inactive)	> 75 µM (inactive)	> 75 µM (inactive)	> 75 µM (inactive)	> 75 µM	–	> 75 µM (inactive)	> 75 µM (inactive)	> 75 µM (inactive)	> 75 µM (inactive)	> 75 µM (inactive)	> 75 µM (inactive)	> 75 µM (inactive)	> 75 µM (inactive)	> 75 µM (inactive)	> 75 µM (inactive)	> 75 µM (inactive)	> 75 µM (inactive)	> 75 µM (inactive)	> 75 µM (inactive)
COc1cc(/C=C/C(=O)OC[C@]23O[C@H]2[C@@H](OC2OC(C)C(O)C(O)C2O)C2C=CO[C@@H](OC4OC(CO)C(O)C(O)C4O)C23)ccc1O (some centres undefined)	> 100 µM (inactive)	–	> 100 µM (inactive)	> 100 µM (inactive)	> 100 µM	> 100 µM (inactive)	> 100 µM (inactive)	> 100 µM (inactive)	> 100 µM (inactive)	> 100 µM (inactive)	> 100 µM (inactive)	> 100 µM (inactive)	> 100 µM (inactive)	> 100 µM (inactive)	> 100 µM (inactive)	–	> 100 µM (inactive)	> 100 µM (inactive)	> 100 µM (inactive)	> 100 µM (inactive)
CN1C/C(=C\c2cccs2)C2=NN(C)C(c3cccs3)C2C1 (centres undefined)	> 100 µM (inactive)	72.8 µM (inactive)	> 100 µM (inactive)	51.4 µM (inactive)	> 100 µM	3.05 µM (inactive)	61.1 µM (inactive)	32.4 µM (inactive)	> 100 µM (inactive)	97.7 µM (inactive)	35.8 µM (inactive)	> 100 µM (inactive)	24.8 µM (inactive)	> 100 µM (inactive)	> 100 µM (inactive)	–	> 100 µM (inactive)	> 100 µM (inactive)	75.7 µM (inactive)	> 100 µM (inactive)
COc1ccc(C(Cc2cc(OC)c(OC)c(OC)c2)C(=O)O)cc1 (centres undefined)	> 100 µM (inactive)	46 µM (inactive)	63 µM (inactive)	41.5 µM (inactive)	43.5 µM	–	37.6 µM (inactive)	76.2 µM (inactive)	41.8 µM (inactive)	44.6 µM (inactive)	> 100 µM (inactive)	> 100 µM (inactive)	55.8 µM (inactive)	81.8 µM (inactive)	26.1 µM (inactive)	42.6 µM (inactive)	52.6 µM (inactive)	46.9 µM (inactive)	72.3 µM (inactive)	74 µM (inactive)
O=C(N1CCOCC1)C1(c2ccccc2)CCNCC1	> 100 µM (inactive)	0.0488 µM (active)	> 100 µM (inactive)	> 100 µM (inactive)	> 100 µM	–	> 100 µM (inactive)	> 100 µM (inactive)	> 100 µM (inactive)	> 100 µM (inactive)	> 100 µM (inactive)	> 100 µM (inactive)	> 100 µM (inactive)	> 100 µM (inactive)	> 100 µM (inactive)	> 100 µM (inactive)	> 100 µM (inactive)	> 100 µM (inactive)	> 100 µM (inactive)	> 100 µM (inactive)
CN1CCc2ccccc2C(C(=O)c2ccc3c(c2)OCO3)C1=O (centres undefined)	> 100 µM (inactive)	> 100 µM (inactive)	–	> 100 µM (inactive)	> 100 µM	> 100 µM (inactive)	> 100 µM (inactive)	> 100 µM (inactive)	> 100 µM (inactive)	> 100 µM (inactive)	89.3 µM (inactive)	> 100 µM (inactive)	> 100 µM (inactive)	> 100 µM (inactive)	–	–	> 100 µM (inactive)	> 100 µM (inactive)	94 µM (inactive)	> 100 µM (inactive)
O=C(NCCN1CCCCC1)c1cccc(I)c1	> 100 µM (inactive)	> 100 µM (inactive)	> 100 µM (inactive)	–	> 100 µM	> 100 µM (inactive)	49.7 µM (inactive)	> 100 µM (inactive)	> 100 µM (inactive)	72.9 µM (inactive)	> 100 µM (inactive)	> 100 µM (inactive)	> 100 µM (inactive)	> 100 µM (inactive)	–	> 100 µM (inactive)	> 100 µM (inactive)	> 100 µM (inactive)	> 100 µM (inactive)	–
COC(=O)/C=C1/CCC(C(=O)OC)N1 (centres undefined)	> 100 µM (inactive)	> 100 µM (inactive)	> 100 µM (inactive)	> 100 µM (inactive)	> 100 µM	> 100 µM (inactive)	–	> 100 µM (inactive)	> 100 µM (inactive)	> 100 µM (inactive)	> 100 µM (inactive)	> 100 µM (inactive)	> 100 µM (inactive)	> 100 µM (inactive)	> 100 µM (inactive)	> 100 µM (inactive)	> 100 µM (inactive)	> 100 µM (inactive)	> 100 µM (inactive)	–
CC1=C(C(=O)NCCCN(CCO)CCO)CC(C(=O)NCCCN(CCO)CCO)=C(C)N1	97.1 µM (inactive)	19.1 µM (inactive)	> 100 µM (inactive)	> 100 µM (inactive)	> 100 µM	> 100 µM (inactive)	> 100 µM (inactive)	> 100 µM (inactive)	85.1 µM (inactive)	> 100 µM (inactive)	> 100 µM (inactive)	> 100 µM (inactive)	76 µM (inactive)	34.8 µM (inactive)	> 100 µM (inactive)	> 100 µM (inactive)	> 100 µM (inactive)	> 100 µM (inactive)	93.5 µM (inactive)	–
